In article PMC7749613 (Journal of Cachexia, Sarcopenia and Muscle, 2020):
Bridge positions count the residues as written; N and C are the ends. Square brackets hold non-standard residues; d marks the D form. Peptide text beside a SMILES is read from it. d2Nal = N[C@H](Cc1ccc2ccccc2c1)C(=O)O; Nle = CCCC[C@H](N)C(=O)O

What was measured:
Assay type in all cases: in vitro ADME
OATP1B3 = target: T1, OATP1B3 (Homo sapiens, UniProt Q9NPD5); assay: Inhibition of prototypical substrate (CCK‐8) uptake by TCMCB07 in HEK293/OATP1B3 cells
T1 construct: host or cells: HEK293
T1 sequence (Q9NPD5 1-702): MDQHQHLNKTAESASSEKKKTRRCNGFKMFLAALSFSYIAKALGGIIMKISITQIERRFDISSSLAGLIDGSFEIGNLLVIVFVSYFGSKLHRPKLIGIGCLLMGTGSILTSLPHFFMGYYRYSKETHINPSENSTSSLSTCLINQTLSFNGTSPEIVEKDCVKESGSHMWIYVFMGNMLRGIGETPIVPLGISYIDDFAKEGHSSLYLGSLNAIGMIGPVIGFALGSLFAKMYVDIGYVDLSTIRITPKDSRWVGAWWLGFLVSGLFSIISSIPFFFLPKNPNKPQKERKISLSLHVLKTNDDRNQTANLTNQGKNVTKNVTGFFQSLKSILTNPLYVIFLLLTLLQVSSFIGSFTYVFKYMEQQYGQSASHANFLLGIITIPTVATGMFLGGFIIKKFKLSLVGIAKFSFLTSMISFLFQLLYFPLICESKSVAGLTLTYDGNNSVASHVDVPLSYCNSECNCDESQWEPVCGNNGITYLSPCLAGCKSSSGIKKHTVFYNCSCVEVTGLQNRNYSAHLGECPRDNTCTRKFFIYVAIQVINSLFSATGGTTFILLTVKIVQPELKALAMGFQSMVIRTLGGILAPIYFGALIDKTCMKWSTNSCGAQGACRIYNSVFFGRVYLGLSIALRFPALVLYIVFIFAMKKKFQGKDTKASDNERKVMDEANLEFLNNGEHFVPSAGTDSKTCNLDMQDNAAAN
Procedure: (§1) Cells were then washed three times × 1.0 mL each with pre‐warmed Hank's Balanced Salt Solution (HBSS) buffer. A 0.5 mL aliquot of uptake buffer [HBSS plus 10 mM 4‐(2‐hydroxyethyl)‐1‐piperazineethanesulfonic acid (HEPES), pH 7.4], containing the radiolabelled prototypical substrate and mannitol, was then incubated for various times up to 60 min to determine the optimal incubation time for subsequent experiments (i.e. time of sampling during linear uptake conditions). At the designated times, 1.0 mL of ice‐cold HBSS buffer was added to stop uptake after which the cells were rinsed three times with 1.0 mL with ice‐cold HBSS. Hyamine hydroxide (0.33 mL) was then added to each well to lyse the cells. The cells were transferred into a scintillation vial and mixed with 6.0 mL of cytosine scintillation cocktail. Radioactivity of the solubilized cells was determined with a dual‐channel liquid scintillation counter (Beckman LS 6000; Beckman Coulter Inc., Fullerton, CA) and the protein quantified by a bicinchoninic acid protein assay kit (Pierce Biotechnology; Rockford, IL).

OCT2 = target: T2, OCT2 (Homo sapiens, UniProt O15244); assay: Inhibition of prototypical substrate (MPP+) uptake by TCMCB07 in HEK293/OCT2 cells
T2 construct: host or cells: HEK293
T2 sequence (O15244 1-555): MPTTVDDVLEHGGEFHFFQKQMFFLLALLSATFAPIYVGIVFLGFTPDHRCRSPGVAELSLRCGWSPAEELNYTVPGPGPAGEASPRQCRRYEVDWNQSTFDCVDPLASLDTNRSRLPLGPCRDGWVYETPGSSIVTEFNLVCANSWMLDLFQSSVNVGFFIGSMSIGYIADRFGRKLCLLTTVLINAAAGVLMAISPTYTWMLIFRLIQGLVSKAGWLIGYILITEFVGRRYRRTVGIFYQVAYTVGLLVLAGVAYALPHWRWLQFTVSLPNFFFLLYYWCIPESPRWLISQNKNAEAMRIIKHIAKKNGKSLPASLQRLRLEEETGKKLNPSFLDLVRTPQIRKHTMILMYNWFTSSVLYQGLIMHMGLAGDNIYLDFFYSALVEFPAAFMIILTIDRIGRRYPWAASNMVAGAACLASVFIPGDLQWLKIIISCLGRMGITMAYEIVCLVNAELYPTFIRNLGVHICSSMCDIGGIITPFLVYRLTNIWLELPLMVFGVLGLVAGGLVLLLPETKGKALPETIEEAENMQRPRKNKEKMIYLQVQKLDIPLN
Procedure: as §1

OATP1A2 = target: T3, OATP1A2 (Homo sapiens, UniProt P46721); assay: Inhibition of prototypical substrate (E3S) uptake by TCMCB07 in HEK293/OATP1A2 cells; parameters: host or cells: HEK293
T3 sequence (P46721 1-670): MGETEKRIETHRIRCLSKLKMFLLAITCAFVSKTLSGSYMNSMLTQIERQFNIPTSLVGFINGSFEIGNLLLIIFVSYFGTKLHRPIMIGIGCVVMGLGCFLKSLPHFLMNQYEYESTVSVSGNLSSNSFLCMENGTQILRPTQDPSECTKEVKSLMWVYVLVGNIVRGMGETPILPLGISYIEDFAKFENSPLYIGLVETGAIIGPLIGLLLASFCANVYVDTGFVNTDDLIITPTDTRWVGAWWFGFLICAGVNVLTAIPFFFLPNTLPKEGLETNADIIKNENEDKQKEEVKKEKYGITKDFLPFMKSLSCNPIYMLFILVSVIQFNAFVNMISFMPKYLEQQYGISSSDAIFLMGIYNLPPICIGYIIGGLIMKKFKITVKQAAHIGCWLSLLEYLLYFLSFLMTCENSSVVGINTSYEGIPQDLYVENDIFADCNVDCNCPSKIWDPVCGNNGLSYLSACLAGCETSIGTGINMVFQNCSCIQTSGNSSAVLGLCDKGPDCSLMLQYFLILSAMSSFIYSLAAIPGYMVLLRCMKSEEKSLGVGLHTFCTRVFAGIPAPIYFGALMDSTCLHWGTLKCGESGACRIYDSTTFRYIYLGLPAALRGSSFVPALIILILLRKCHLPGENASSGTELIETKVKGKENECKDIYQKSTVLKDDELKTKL
Procedure: as §1
Mock and transfected cells (250 000 cells/well) were seeded onto BioCoat poly‐D‐lysine 24 well plates (Corning Inc.) and cultured for 2 days as described previously for the other OATPs. […] Radioactivity and protein measurements were then performed as described previously.

OAT1 = target: T4, OAT1 (Homo sapiens, UniProt Q4U2R8); assay: Inhibition of prototypical substrate (PAH) uptake by TCMCB07 in HEK293/OAT1 cells; conditions: substrate 1.0 μM [14C]PAH, 5.0 min, up to 1000 μM TCMCB07
T4 construct: host or cells: HEK293
T4 sequence (Q4U2R8 1-563): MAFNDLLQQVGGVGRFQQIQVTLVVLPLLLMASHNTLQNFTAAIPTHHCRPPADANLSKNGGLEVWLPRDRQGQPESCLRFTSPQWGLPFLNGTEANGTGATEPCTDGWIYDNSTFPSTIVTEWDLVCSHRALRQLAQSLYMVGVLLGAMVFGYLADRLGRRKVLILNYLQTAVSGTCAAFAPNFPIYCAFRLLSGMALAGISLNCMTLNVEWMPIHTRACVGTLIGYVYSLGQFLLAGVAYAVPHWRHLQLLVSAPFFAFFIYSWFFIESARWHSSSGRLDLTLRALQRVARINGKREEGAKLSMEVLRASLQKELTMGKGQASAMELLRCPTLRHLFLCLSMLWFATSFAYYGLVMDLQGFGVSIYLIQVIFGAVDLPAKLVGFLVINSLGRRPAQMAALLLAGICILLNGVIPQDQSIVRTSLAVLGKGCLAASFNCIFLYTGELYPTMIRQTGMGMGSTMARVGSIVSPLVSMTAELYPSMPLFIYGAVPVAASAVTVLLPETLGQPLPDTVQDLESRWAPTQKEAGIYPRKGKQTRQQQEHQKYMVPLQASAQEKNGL
Procedure: as §1

CCCC[C@H](NC(C)=O)C(=O)N[C@H]1CC(=O)NCCCC[C@@H](C(=O)N[C@@H](C(=O)N2CCC[C@@H]2C(N)=O)C(C)C)NC(=O)[C@H](Cc2c[nH]c3ccccc23)NC(=O)[C@H](CCCN=C(N)N)NC(=O)[C@@H](Cc2ccc3ccccc3c2)NC(=O)[C@@H]2CCCN2C1=O [TCMCB07, Ac‐Nle‐c[Asp‐Pro‐dNal2′‐Arg‐Trp‐Lys]‐dVal‐dPro‐NH2] (Ac-[Nle]DP[d2Nal]RWK[dV][dP]-NH2; lactam 2-7)
IC50 (OATP1B3): 307 ± 39 µM
Slope factor (OATP1B3; slope factor n of Eqn 1, OATP1B3, substrate CCK‐8): 1.8 ± 0.3
IC50 (OCT2): 1170 µM
IC50 (OATP1A2): 24 ± 2.8 µM
IC50 (OAT1): could not be determined
